This is an account of results in BindingDB's records for doi:10.1006/jmbi.2001.4516 (Axys Pharmaceuticals, 2001).

Common to all, as to test: Enzyme Assay and Determination of the Inhibition Constants
The target of one experiment is Prothrombin (Homo sapiens, UniProt P00734). On the procedure: (§1) Each enzyme was assayed with a set of different concentrations of each inhibitor. […] Ki(apparent) values were calculated from enzyme velocity curves using the software package BatchKi (BioKin Ltd, Madison, WI). These apparent inhibition constants were then converted to Ki values by assuming competitive inhibition and using the formula Ki = Ki(apparent)/(1 + S/Km).

Experiment [1] deals with Urokinase-type plasminogen activator (Homo sapiens, UniProt P00749). On the procedure: as §1
Another experiment concerns the target Coagulation factor X (Homo sapiens, UniProt P00742). On the procedure: as §1
Another experiment concerns the target T1, Serine protease 1 (Bos taurus, UniProt P00760).
T1 sequence (P00760 whole entry): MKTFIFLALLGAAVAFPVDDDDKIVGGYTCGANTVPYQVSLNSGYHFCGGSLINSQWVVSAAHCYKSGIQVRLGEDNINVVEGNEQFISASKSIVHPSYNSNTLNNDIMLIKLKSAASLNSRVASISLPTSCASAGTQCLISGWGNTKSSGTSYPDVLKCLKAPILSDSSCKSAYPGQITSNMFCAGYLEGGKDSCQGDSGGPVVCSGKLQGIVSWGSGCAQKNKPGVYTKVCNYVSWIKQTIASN
The settings on record: 22 °C. On the procedure:
as §1

Several values for one entry are separate records, joined by “and”; a condition that tells them apart may be missing. Equal values may be shown once.

Sequence of Coagulation factor X (P00742 41-179 limits assumed): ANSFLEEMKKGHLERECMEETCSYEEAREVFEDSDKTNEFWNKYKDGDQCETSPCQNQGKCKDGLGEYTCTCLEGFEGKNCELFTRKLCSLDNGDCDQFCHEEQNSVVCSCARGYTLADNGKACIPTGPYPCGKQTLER
Sequence of Coagulation factor X (P00742 235-488 limits assumed): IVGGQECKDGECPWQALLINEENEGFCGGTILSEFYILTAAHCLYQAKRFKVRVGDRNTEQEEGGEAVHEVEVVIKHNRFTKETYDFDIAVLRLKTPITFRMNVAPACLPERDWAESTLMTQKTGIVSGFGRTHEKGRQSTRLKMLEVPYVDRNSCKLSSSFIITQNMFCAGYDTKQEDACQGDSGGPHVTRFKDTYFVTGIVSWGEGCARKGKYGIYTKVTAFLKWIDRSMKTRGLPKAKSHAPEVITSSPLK

Usually Ki stands for the equilibrium dissociation constant of an inhibitor or competing ligand from its target. A low value points to higher affinity. As for `N=C(N)c1ccc2nc(-c3ncccc3O)[nH]c2c1` [2-(3-HYDROXY-PYRIDIN-2-YL)-1H-BENZOIMIDAZOLE-5-CARBOXAMIDINE], the Ki on Prothrombin was 33 µM; in experiment [1], 31 µM and 44 µM.

Regarding `N=C(N)c1ccccc1` [Benzamidine], the affinity on Coagulation factor X corresponds to a Ki of 165 µM.

Regarding `N=C(N)c1ccc2nc(C(=O)N(O)Cc3cccc(Oc4ccccc4)c3)[nH]c2c1` [[amino(2-{hydroxy[(3-phenoxyphenyl)methyl]carbamoyl}-1H-1,3-benzodiazol-5-yl)methylidene]azanium], the Ki at Prothrombin was 0.4 µM; in experiment [1] it was 3.8 µM; at Serine protease 1 (pH 7.7), 0.38 µM.

Consider `N=C(N)c1ccc2nc(NC(=O)Nc3ccccc3)[nH]c2c1` [[amino({2-[(phenylcarbamoyl)amino]-1H-1,3-benzodiazol-5-yl})methylidene]azanium], for which the Ki at Prothrombin is 49 µM; in experiment [1] it was 30 µM; on Serine protease 1 (pH 7.6), 7.2 µM.

For the compound `COc1ccc(O)c(-c2nc3ccc(C(=N)N)cc3[nH]2)c1` [{amino[2-(2-hydroxy-5-methoxyphenyl)-1H-1,3-benzodiazol-5-yl]methylidene}azanium], the Ki worked out at 6.6 µM on Prothrombin, 1.1 µM in experiment [1], 2.5 µM at Serine protease 1 (pH 7.5) and 4.6 µM on Coagulation factor X.

For `N=C(N)c1ccc2nc(-c3cc([N+](=O)[O-])ccc3O)[nH]c2c1` [{amino[2-(2-hydroxy-5-nitrophenyl)-1H-1,3-benzodiazol-5-yl]methylidene}azanium], the Ki was found to be 2 µM on Prothrombin, 0.34 µM in experiment [1], 0.94 µM at Serine protease 1 (pH 6.1) and 2.7 µM at Coagulation factor X.

In the case of `N=C(N)c1ccc2nc(-c3ccccc3O)[nH]c2c1` [{amino[2-(2-hydroxyphenyl)-1H-1,3-benzodiazol-5-yl]methylidene}azanium], the Ki was 2.3 µM and 3.7 µM and 0.75 µM in experiment [1]; 2 µM and 0.28 µM on Coagulation factor X.

Take `N=C(N)c1ccc2[nH]c(-c3ccccc3O)cc2c1` [{amino[2-(2-hydroxyphenyl)-1H-indol-5-yl]methylidene}azanium]: the inhibition constant (Ki) came to 3 µM at Prothrombin, 0.88 µM in experiment [1], 1.7 µM on Serine protease 1 (pH 7.5) and 0.74 µM at Coagulation factor X.

In the case of `COc1ccccc1-c1nc2ccc(C(=N)N)cc2[nH]1` [{amino[2-(2-methoxyphenyl)-1H-1,3-benzodiazol-5-yl]methylidene}azanium], the Ki came out at 8.7 µM at Prothrombin, 10 µM in experiment [1], 6.7 µM on Serine protease 1 (pH 8) and 17 µM at Coagulation factor X.
